Measured values as given in patent publication US3932383A, “9-Dihydroniddamycin A compounds and related 3-(O)-esters and the process for their preparation” (Abbott Laboratories, priority 1974, dated 1976).
In brackets after ≈: the same amount, converted by molar mass.

Assays:
Type in all cases: cell-based
[1] = tested on: Diplococcus pneumoniae 6301; assay: two-fold tube dilution test; conditions: Streptococcus pneumoniae, brain-heart infusion broth and 20% horse serum, 24 hours at 37° C., read-out: Minimum Inhibitory Concentration
Protocol: (§1) Three niddamycin and two dihydroniddamycin compounds were tested for their activity against Streptococcus pyogenes C203, Diplococcus pneumoniae 6301 and Mycoplasma pneumoniae FH.
(§2) A standard two-fold tube dilution test was used. The medium and inoculum were varied with each culture.
In the test for activity against Diplococcus pneumoniae 6301, 5 ml. portions of brain-heart infusion broth and 20% horse serum were used with 0.1 ml. of 1:100 dilution culture. The test was incubated for 24 hours at 37° C.

Mycoplasma pneumoniae FH [2] = assay: two-fold tube dilution test; conditions: 144 h, PPLO broth, 6 days at 37° C., read-out: Minimum Inhibitory Concentration
Protocol: as §1, §2
In the test for activity against Mycoplasma pneumoniae FH, 4.5 ml. portions of PPLO broth were used with 0.5 ml. of a 1:100 dilution culture. the test was incubated for 6 days at 37° C.

[3] = tested on: Streptococcus pyogenes C203; assay: two-fold tube dilution test; conditions: brain-heart infusion broth, 24 hours at 37° C., read-out: Minimum Inhibitory Concentration
Protocol: as §1, §2
In the test for activity against Streptococcus pyrogenes C203, 5 ml. portions of brain-heart infusion broth were used with 0.1 ml. of a 1:100 dilution culture. The test was incubated for 24 hours at 37° C.

A. versicolor = assay: standard FG (fungi) screening program; conditions: Aspergillus versicolor, read-out: Minimum Inhibitory Concentration
Protocol: (§3) The samples were also tested on the standard FG (fungi) screening program.
(§4) The niddamycin base compound (M-188 ) was used as the control compound.

M. verrucaria = assay: standard FG (fungi) screening program; conditions: read-out: Minimum Inhibitory Concentration
Protocol: as §3, §4

F. oxysporum = assay: standard FG (fungi) screening program; conditions: Fusarium oxysporum, read-out: Minimum Inhibitory Concentration
Protocol: as §3, §4

P. citrinum = assay: standard FG (fungi) screening program; conditions: Penicillium citrinum, read-out: Minimum Inhibitory Concentration
Protocol: as §3, §4

Alternaria label isolate = assay: standard FG (fungi) screening program; conditions: read-out: Minimum Inhibitory Concentration
Protocol: as §3, §4

C. globosum = assay: standard FG (fungi) screening program; conditions: Chaetomium globosum, read-out: Minimum Inhibitory Concentration
Protocol: as §3, §4

Rhizopus nigricans = assay: standard FG (fungi) screening program; conditions: Rhizopus stolonifer, read-out: Minimum Inhibitory Concentration
Protocol: as §3, §4

[4] = tested on: Mycoplasma granularum 19168; assay: two-fold tube dilution method; conditions: Acholeplasma granularum, 37° C., read-out: Minimum Inhibitory Concentration
Protocol: (§5) Two niddamycin derivatives were tested for their activity against 21 organisms.
(§6) An agar dilution two-fold dilution test was used for the first 14 bacterial organisms, while the remaining seven were tested by means of a two-fold tube dilution method. The incubation for all the tests was carried out at 37° C.
as §4

[5] = tested on: Mycoplasma hyorhinis 17981; assay: two-fold tube dilution method; conditions: 37° C., read-out: Minimum Inhibitory Concentration
Protocol: as §5, §6, §4

[6] = tested on: Trichomonas vaginalis C1M1; assay: two-fold tube dilution method; conditions: 37° C., read-out: Minimum Inhibitory Concentration
Protocol: as §5, §6, §4

[7] = tested on: Haemophilus influenzae 9334; assay: two-fold tube dilution method; conditions: 37° C., read-out: Minimum Inhibitory Concentration
Protocol: as §5, §6, §4

Crithidia fasciculata = assay: two-fold tube dilution method; conditions: 37° C., read-out: Minimum Inhibitory Concentration
Protocol: as §5, §6, §4

[8] = tested on: Mycoplasma gallispeticum S6; assay: two-fold tube dilution method; conditions: 37° C., read-out: Minimum Inhibitory Concentration
Protocol: as §5, §6, §4

Mycoplasma pneumoniae FH [9] = assay: two-fold tube dilution method; conditions: 37° C. (Table 2), read-out: Minimum Inhibitory Concentration
Protocol: as §5, §6, §4

[10] = tested on: Staphylococcus aureus Smith ER; assay: agar two-fold dilution test; conditions: read-out: Minimum Inhibitory Concentration
Protocol: as §5, §6, §4

[11] = tested on: Proteus mirabilis Finland No. 9; assay: agar two-fold dilution test; conditions: 37° C., read-out: Minimum Inhibitory Concentration
Protocol: as §5, §6, §4

[12] = tested on: Staphylococcus aureus Wise 155; assay: agar two-fold dilution test; conditions: WISE155, 37° C., read-out: Minimum Inhibitory Concentration
Protocol: as §5, §6, §4

[13] = tested on: Pseudomonas aeruginosa BMH No. 10; assay: agar two-fold dilution test; conditions: BMHNO.10, 37° C., read-out: Minimum Inhibitory Concentration
Protocol: as §5, §6, §4

[14] = tested on: Proteus vulgaris Abbott JJ; assay: agar two-fold dilution test; conditions: 37° C., read-out: Minimum Inhibitory Concentration
Protocol: as §5, §6, §4

[15] = tested on: Klebsiella pneumoniae 10031; assay: agar two-fold dilution test; conditions: 37° C., read-out: Minimum Inhibitory Concentration
Protocol: as §5, §6, §4

Shigella sonnei 9290 = assay: agar two-fold dilution test; conditions: 37° C., read-out: Minimum Inhibitory Concentration
Protocol: as §5, §6, §4

[16] = tested on: Salmonella typhimurium Ed No. 9; assay: agar two-fold dilution test; conditions: Salmonella enterica, 37° C., read-out: Minimum Inhibitory Concentration
Protocol: as §5, §6, §4

[17] = tested on: Pasteurella multocida 10544; assay: agar two-fold dilution test; conditions: 37° C., read-out: Minimum Inhibitory Concentration
Protocol: as §5, §6, §4

[18] = tested on: Staphylococcus aureus 9144; assay: agar two-fold dilution test; conditions: 37° C., read-out: Minimum Inhibitory Concentration
Protocol: as §5, §6, §4

Escherichia coli Juhl = assay: agar two-fold dilution test; conditions: 37° C., read-out: Minimum Inhibitory Concentration
Protocol: as §5, §6, §4

[19] = tested on: Staphylococcus aureus Smith; assay: agar two-fold dilution test; conditions: 37° C., read-out: Minimum Inhibitory Concentration
Protocol: as §5, §6, §4

[20] = tested on: Streptococcus pyogenes Roper; assay: agar two-fold dilution test; conditions: 37° C., read-out: Minimum Inhibitory Concentration
Protocol: as §5, §6, §4

[21] = tested on: Streptococcus faecalis 10541; assay: agar two-fold dilution test; conditions: Enterococcus faecalis, 37° C., read-out: Minimum Inhibitory Concentration
Protocol: as §5, §6, §4

SMILES | MIC (Mycoplasma pneumoniae FH [2]) [µg/mL] | MIC [3] [µg/mL] | MIC (A. versicolor) [µg/mL] | MIC (M. verrucaria) [µg/mL] | MIC (F. oxysporum) [µg/mL] | MIC (P. citrinum) [µg/mL] | MIC (Alternaria label isolate) [µg/mL] | MIC (C. globosum) [µg/mL] | MIC (Rhizopus nigricans) [µg/mL] | MIC [4] [µg/mL] | MIC [5] [µg/mL] | MIC [6] [µg/mL] | MIC [7] [µg/mL] | MIC (Crithidia fasciculata) [µg/mL] | MIC [8] [µg/mL] | MIC (Mycoplasma pneumoniae FH [9]) [µg/mL] | MIC [10] [µg/mL] | MIC [11] [µg/mL] | MIC [12] [µg/mL] | MIC [13] [µg/mL] | also measured
COC(CC1CC(C)C(=O)C=CC=CCC(C)OC(=O)CC(OC(C)=O)C(OC)C1OC1OC(C)C(OC2CC(C)(O)C(OC(=O)CC(C)C)C(C)O2)C(N(C)C)C1OC(C)=O)OC (stereo not drawn) [Compound 4B, 2',3-Di-(O)-acetylniddamycin dimethyl acetal] | > 100 | > 100 |  |  |  |  |  |  |  |  |  |  |  |  |  |  |  |  |  |  | MIC [1]: > 100 µg/mL
COC1C(OC(C)=O)CC(=O)OC(C)CC=CC=CC(O)C(C)CC(CC=O)C1OC1OC(C)C(OC2CC(C)(O)C(OC(=O)CC(C)C)C(C)O2)C(N(C)C)C1O (single isomer, unassigned) [Compound 8B, 3-(O)-Acetyl-9-Dihydroniddamycin A] |  |  | > 100 | > 100 | > 100 | > 100 | > 100 | > 100 | > 100 | 5 (≈ 6.04 µM) | 0.5 (≈ 0.604 µM) | > 100 | 6.2 (≈ 7.49 µM) | > 100 | 0.25 (≈ 0.302 µM) | 25 (≈ 30.2 µM) | > 100 | > 100 | 1.56 (≈ 1.88 µM) | > 100 | MIC [14]: > 100 µg/mL; MIC [15]: 25 µg/mL (≈ 30.2 µM); MIC (Shigella sonnei 9290): > 100 µg/mL; MIC [16]: > 100 µg/mL; MIC [17]: 12.5 µg/mL (≈ 15.1 µM); MIC [18]: 0.78 µg/mL (≈ 0.942 µM); MIC (Escherichia coli Juhl): > 100 µg/mL; MIC [19]: 0.78 µg/mL (≈ 0.942 µM); MIC [20]: > 100 µg/mL; MIC [21]: 1.56 µg/mL (≈ 1.88 µM)
COC(CC1CC(C)C(=O)C=CC=CCC(C)OC(=O)CC(OC(C)=O)C(OC)C1OC1OC(C)C(OC2CC(C)(O)C(OC(=O)CC(C)C)C(C)O2)C(N(C)C)C1O)OC (stereo not drawn) [Compound 6B, 3-(O)-Acetylniddamycin dimethyl acetal] | 25 (≈ 28.7 µM) | 12.5 (≈ 14.3 µM) |  |  |  |  |  |  |  |  |  |  |  |  |  |  |  |  |  |  | 
COC(CC1CC(C)C(O)C=CC=CCC(C)OC(=O)CC(O)C(OC)C1OC1OC(C)C(OC2CC(C)(O)C(OC(=O)CC(C)C)C(C)O2)C(N(C)C)C1O)OC (single isomer, unassigned) [Compound 3, 9-Dihydroniddamycin A dimethyl acetal] | 50 (≈ 60.1 µM) | 25 (≈ 30 µM) |  |  |  |  |  |  |  |  |  |  |  |  |  |  |  |  |  |  | 
COC(CC1CC(C)C(=O)C=CC=CCC(C)OC(=O)CC(O)C(OC)C1OC1OC(C)C(OC2CC(C)(O)C(OC(=O)CC(C)C)C(C)O2)C(N(C)C)C1O)OC (stereo not drawn) [Compound 2, Niddamycin dimethyl acetal] | 25 (≈ 30.1 µM) | 0.78 (≈ 0.94 µM) |  |  |  |  |  |  |  |  |  |  |  |  |  |  |  |  |  |  | MIC [1]: ≤ 1.56 µg/mL
COC1C(O)CC(=O)OC(C)CC=CC=CC(O)C(C)CC(CC=O)C1OC1OC(C)C(OC2CC(C)(O)C(OC(=O)CC(C)C)C(C)O2)C(N(C)C)C1O (single isomer, unassigned) [Compound 5, 9-Dihydroniddamycin A] |  |  | > 100 | > 100 | > 100 | > 100 | > 100 | > 100 | > 100 | 2.5 (≈ 3.18 µM) | 0.25 (≈ 0.318 µM) | > 100 | 6.2 (≈ 7.89 µM) | > 100 | 0.25 (≈ 0.318 µM) | 50 (≈ 63.6 µM) | > 100 | > 100 | 1.56 (≈ 1.98 µM) | > 100 | MIC [14]: > 100 µg/mL; MIC [15]: 12.5 µg/mL (≈ 15.9 µM); MIC (Shigella sonnei 9290): > 100 µg/mL; MIC [16]: > 100 µg/mL; MIC [17]: 12.5 µg/mL (≈ 15.9 µM); MIC [18]: 0.78 µg/mL (≈ 0.992 µM); MIC (Escherichia coli Juhl): > 100 µg/mL; MIC [19]: 0.78 µg/mL (≈ 0.992 µM); MIC [20]: > 100 µg/mL; MIC [21]: 0.78 µg/mL (≈ 0.992 µM)
COC1C(O)CC(=O)OC(C)CC=CC=CC(=O)C(C)CC(CC=O)C1OC1OC(C)C(OC2CC(C)(O)C(OC(=O)CC(C)C)C(C)O2)C(N(C)C)C1O (stereo not drawn) [Niddamycin Base, niddamycin] |  |  | > 100 | > 100 | > 100 | > 100 | > 100 | > 100 | > 100 | 1 (≈ 1.28 µM) | 0.25 (≈ 0.319 µM) | > 100 | 3.1 (≈ 3.95 µM) | > 100 | 0.1 (≈ 0.128 µM) | 10 (≈ 12.8 µM) | > 100 | > 100 | 0.78 (≈ 0.995 µM) | > 100 | MIC [14]: > 100 µg/mL; MIC [15]: 12.5 µg/mL (≈ 15.9 µM); MIC (Shigella sonnei 9290): > 100 µg/mL; MIC [16]: > 100 µg/mL; MIC [17]: 12.5 µg/mL (≈ 15.9 µM); MIC [18]: 0.39 µg/mL (≈ 0.497 µM); MIC (Escherichia coli Juhl): > 100 µg/mL; MIC [19]: 0.39 µg/mL (≈ 0.497 µM); MIC [20]: > 100 µg/mL; MIC [21]: 0.78 µg/mL (≈ 0.995 µM)
COC(CC1CC(C)C(O)C=CC=CCC(C)OC(=O)CC(OC(C)=O)C(OC)C1OC1OC(C)C(OC2CC(C)(O)C(OC(=O)CC(C)C)C(C)O2)C(N(C)C)C1O)OC (single isomer, unassigned) [Compound 7B, 3-(O)-Acetyl-9-dihydroniddamycin A dimethyl acetal] | 50 (≈ 57.2 µM) | 100 (≈ 114 µM) |  |  |  |  |  |  |  |  |  |  |  |  |  |  |  |  |  |  | 
